“And” between values parts separate entries of the source, which are not always exact repeats. Identical values can stand only once. Like-named read-outs stand apart in the source and are kept apart here.
How the values were obtained:
[1] = test system: Thielavia wild type laccase
[2] = test system: recombinant Thielavia arenaria TaLcc1 laccase (rTaLcc1); assay type: biochemical
Method: Table 2. Inhibition of the Thielavia wild type laccase.
The inhibition effect of different compounds on the activity of the recombinant TaLcc1 laccase was determined as described in Example 2. Table 7. Inhibition of the recombinant Thielavia arenaria TaLcc1 laccase (rTaLcc1) activity by various compounds.

[3] = Sodium hypochlorite bleaching of different types of denim, Wascator, colour of face side of denim; details: 25 ml/l 10 % NaOCl, 15 min, 40°C, pH 11.5 - 11.9
Method: Different types of demin were treated with a TaLcc1 laccase product from Trichoderma strain RF5597 and DeniLite II Base from Novozymes and the results obtained were compared to hypochlorite bleaching. All together 27 pieces of different kinds of denim (whole jeans), which had been previously washed with cellulase after desizing to different abrasion levels or had been only desized with ECOSTONE® A200 (60°C, 10 min), were collected for the test (Table 15). The jeans were made of Indigo dyed denim, except the English jeans contained Indigo dyed denim with sulphur bottom. Jeans were cut in such a way that pieces from the same pair of jeans could be used for all tests.
The sodium hypochlorite bleaching was performed with Electrolux's Wascator FOM 71 CLS washer extractor using denim obtained from the same jeans as in laccase treatments under conditions described in Table 17. Sodium hydroxide was added before adding 25 ml/l of 10 % sodium hypochlorite solution (Klorite Forte, Farmos Oy) to keep the pH above 10.5 during the treatment. After draining the bleach liquor, there was one 2 minutes rinsing step with the liquor ratio of 1:20 before dechlorinating with sodium thiosulphate. After dechlorinating the denim samples were rinsed 3 times for 2 minutes with the liquor ratio of 1:20. The fabrics were dried in a tumbler. Table 17. The process parameters used in the sodium hypochlorite bleaching and dechlorinating.
The bleaching effect was evaluated by measuring the colour as reflectance values as in Example 7. […] Different looks were obtained depending on the type of the denim and cellulase treatment used. "Sulphur-bottom type" denim was the most difficult to bleach. Table 18. Colour measurements of the face side of denim treated with TaLcc1 laccase preparation (RF5597). L* indicates lightness, -b* is the blue direction, +b* is the yellow direction.

[4] = substrate: COc1cccc(OC)c1O; assay: Kinetic parameters (Km, kcat, kcat/Km) on laccase substrates; assay type: biochemical, Melanocarpus albomyces; details: other: substrate DMP, 25°C, buffer unclear, comparison enzyme
Method: (§1) On syringaldazin and DMP 40 mM MES buffer, pH 6 and 25 mM succinate bluffer, All activity assays were carried out at 25°C. Kinetic parameters were estimated by a nonlinear regression curve fit. The values were compared to those of Melanocarpus albomyces MaL, laccase.

[5] = substrate: COc1cc(C=NN=Cc2cc(OC)c(O)c(OC)c2)cc(OC)c1O; assay: as above; assay type: biochemical, Melanocarpus albomyces; details: other: substrate Syringaldazin, 25°C, buffer unclear, comparison enzyme
Method: as §1

[6] = sample B1, Basic Jeans, Ecostone P1250
[7] = sample E1, English jeans (sulphur bottom), desized only
[8] = sample E2, English jeans (sulphur bottom), Ecostone NP2000
[9] = sample E3, English jeans (sulphur bottom), Rocksoft NCE-EA
[10] = sample E4, English jeans (sulphur bottom), Rocksoft NCE-2X
[11] = sample E5, English jeans (sulphur bottom), Ecostone L900
[12] = sample E6, English jeans (sulphur bottom), Ecostone L900
[13] = sample E7, English jeans (sulphur bottom), Ecostone L900
[14] = sample L1, Lee Cooper jeans, desized only
[15] = sample L2, Lee Cooper jeans, Ecostone L
[16] = sample L3, Lee Cooper jeans, Biotouch C29
[17] = sample L4, Lee Cooper jeans, Ecostone L
[18] = sample L5, Lee Cooper jeans, Indiage Max L
[19] = sample L6, Lee Cooper jeans, Indiage Super L
[20] = sample L7, Lee Cooper jeans, Ecostone CXP500 Exper.
[21] = sample L8, Lee Cooper jeans, Ecostone CXP experimental
[22] = sample L9, Lee Cooper jeans, Ecostone N400
[23] = sample T1, Tincan jeans, desized only
[24] = sample T2, Tincan jeans, Ecostone N400
[25] = sample T3, Tincan jeans, Ecostone L300
[26] = sample T4, Tincan jeans, Denimax 991S
[27] = sample W1, Warric jeans, desized only
[28] = sample W2, Warric jeans, Ecostone P4500
[29] = sample W3, Warric jeans, Indiage Max G
[30] = sample W4, Warric jeans, Ecostone NP2000
[31] = sample W5, Warric jeans, Ecostone L900
[32] = sample W6, Warric jeans, Denabraide MBL 65 E

## O=C(O)CN(CCN(CC(=O)O)CC(=O)O)CC(=O)O [EDTA]
[1]; inhibitor 10 mM, 2 mM ABTS, 25 mM succinate buffer pH 4.5
  Inhibition(%) wt TaLcc1: 0%
[2]; inhibitor 10 mM, ABTS as substrate
  Inhibition (%) of laccase rTaLcc1: 5%

## [Cl-].[Na+] [NaCl]
[1]; pH 4.5
  Inhibition(%) wt TaLcc1: 35% and 42%
[2]
  Inhibition (%) of laccase rTaLcc1: 0%

## [N-]=[N+]=[N-].[Na+] [NaN3]
[2]
  Inhibition (%) of laccase rTaLcc1: 95%

## OCl [sodium hypochlorite]
[3]; [6]
  After laccase Treatment L*: 40.62
  After laccase Treatment b*: -17.37
  Increase of L*: 12.27
[3]; [7]
  After laccase Treatment L*: 21.91
  After laccase Treatment b*: -15.03
  Increase of L*: 5.15
[3]; [8]
  After laccase Treatment L*: 33.30
  After laccase Treatment b*: -16.43
  Increase of L*: 7.36
[3]; [9]
  After laccase Treatment L*: 34.13
  After laccase Treatment b*: -16.73
  Increase of L*: 9.40
[3]; [10]
  After laccase Treatment L*: 35.83
  After laccase Treatment b*: -16.86
  Increase of L*: 9.28
[3]; [11]
  After laccase Treatment L*: 33.85
  After laccase Treatment b*: -16.48
  Increase of L*: 9.28
[3]; [12]
  After laccase Treatment L*: 30.61
  After laccase Treatment b*: -16.65
  Increase of L*: 8.41
[3]; [13]
  After laccase Treatment L*: 32.36
  After laccase Treatment b*: -16.75
  Increase of L*: 9.62
[3]; [14]
  After laccase Treatment L*: 31.23
  After laccase Treatment b*: -20.83
  Increase of L*: 10.69
[3]; [15]
  After laccase Treatment L*: 44.11
  After laccase Treatment b*: -18.60
  Increase of L*: 12.97
[3]; [16]
  After laccase Treatment L*: 39.71
  After laccase Treatment b*: -19.67
  Increase of L*: 11.26
[3]; [17]
  After laccase Treatment L*: 40.63
  After laccase Treatment b*: -19.25
  Increase of L*: 11.48
[3]; [18]
  After laccase Treatment L*: 39.47
  After laccase Treatment b*: -19.48
  Increase of L*: 11.47
[3]; [19]
  After laccase Treatment L*: 41.50
  After laccase Treatment b*: -18.68
  Increase of L*: 12.42
[3]; [20]
  After laccase Treatment L*: 37.91
  After laccase Treatment b*: -19.85
  Increase of L*: 11.15
[3]; [21]
  After laccase Treatment L*: 40.74
  After laccase Treatment b*: -19.12
  Increase of L*: 11.98
[3]; [22]
  After laccase Treatment L*: 40.82
  After laccase Treatment b*: -18.82
  Increase of L*: 11.91
[3]; [23]
  After laccase Treatment L*: 33.97
  After laccase Treatment b*: -17.95
  Increase of L*: 8.95
[3]; [24]
  After laccase Treatment L*: 34.38
  After laccase Treatment b*: -18.22
  Increase of L*: 6.73
[3]; [25]
  After laccase Treatment L*: 40.33
  After laccase Treatment b*: -18.30
  Increase of L*: 11.24
[3]; [26]
  After laccase Treatment L*: 37.66
  After laccase Treatment b*: -18.58
  Increase of L*: 10.10
[3]; [27]
  After laccase Treatment L*: 27.75
  After laccase Treatment b*: -18.76
  Increase of L*: 10.17
[3]; [28]
  After laccase Treatment L*: 39.35
  After laccase Treatment b*: -17.39
  Increase of L*: 13.76
[3]; [29]
  After laccase Treatment L*: 41.11
  After laccase Treatment b*: -16.79
  Increase of L*: 12.99
[3]; [30]
  After laccase Treatment L*: 38.07
  After laccase Treatment b*: -17.33
  Increase of L*: 12.29
[3]; [31]
  After laccase Treatment L*: 37.12
  After laccase Treatment b*: -18.03
  Increase of L*: 13.40
[3]; [32]
  After laccase Treatment L*: 36.65
  After laccase Treatment b*: -17.95
  Increase of L*: 12.90

B1: Melanocarpus albomyces laccase MaL (Melanocarpus albomyces) (protein)
chain: EPTCNTPSNRACWSDGFDINTDYEVSTPDTGVTQSYVFNLTEVDNWMGPDGVVKEKVMLINGNIMGPNIVANWGDTVEVTVINNLVTNGTSIHWHGIHQKDTNLHDGANGVTECPIPPKGGQRTYRWRARQYGTSWYHSHFSAQYGNGVVGTIQINGPASLPYDIDLGVFPITDYYYRAADDLVHFTQNNAPPFSDNVLINGTAVNPNTGEGQYANVTLTPGKRHRLRILNTSTENHFQVSLVNHTMTVIAADMVPVNAMTVDSLFLAVGQRYDVVIDASRAPDNYWFNVTFGGQAACGGSLNPHPAAIFHYAGAPGGLPTDEGTPPVDHQCLDTLDVRPVVPRSVPVNSFVKRPDNTLPVALDLTGTPLFVWKVNGSDINVDWGKPIIDYILTGNTSYPVSDNIVQVDAVDQWTYWLIENDPEGPFSLPHPMHLHGHDFLVLGRSPDVPAASQQRFVFDPAVDLARLNGDNPPRRDTTMLPAGGWLLLAFRTDNPGAWLFHCHIAWHVSGGLSVDFLERPADLRQRISQEDEDDFNRVCDEWRAYWPTNPYPKIDSGL
[4]
  Km: 5 µM
  kcat: 69.33 s⁻¹
  kcat/Km: 1.35e+07 M⁻¹ s⁻¹
[5]
  Km: 1.3 µM
  kcat: 78.5 s⁻¹
  kcat/Km: 6e+07 M⁻¹ s⁻¹

Source: patent EP1799816B1, “NOVEL LACCASE ENZYME AND USE THEREOF” (AB Enzymes Oy, priority 2004, dated 2006)
